{
  "source": "patent US20230212571A1",
  "about": "“COMPOSITIONS AND METHODS FOR DELIVERING POLYNUCLEOTIDES” (NeOnc Technologies, Inc., priority 2020, published 2023)",
  "key": {"[1]": {"test_system": "AVM-BEC", "conditions": "previous studies (Stapleton 2011); cited from earlier work"}, "[2]": {"test_system": "BEC", "assay": "ELISA of control BEC supernatants", "assay_type": "cell-based, human", "conditions": "control BEC supernatants, normoxia", "text": "(§1) Human surgical specimens were obtained following written informed consent from patients in accordance with Declaration of Helsinki guidelines and the Institutional Review Board (HS-04B053), at Keck School of Medicine, USC. AVM-BECs were isolated from brain tissues of patients who underwent microsurgical AVM resection. Control BECs were isolated from the structurally normal […] of patients who underwent temporal lobectomy for intractable epilepsy. Endothelial cell (EC) isolation and culture were described^5,9. (Stapleton C J, Armstrong D L, Zidovetzki R, Liu C Y, Giannotta S L, Hofman F M. Thrombospondin-1 modulates the angiogenic phenotype of human cerebral arteriovenous malformation endothelial cells. Neurosurgery. 2011; 68(5):1342-1353) (Ferreira R, Santos T, Amar A, et al. Argonaute-2 promotes miR-18a entry in human brain endothelial cells. J Am Heart Assoc. 2014; 3(3):e000968) ECs were only used between passages 3-5. Experiments were performed under shear flow conditions (12 dyn/cm^2) to reproduce arterial flow^6. (Ferreira R, Santos T, Amar A, et al. MicroRNA-18a improves human cerebral arteriovenous malformation endothelial cell function. Stroke. 2014; 45(1):293-297). For hypoxic experiments, cells were cultured in a Galaxy 48R (Eppendorf) incubator at 3% O2. MicroRNAs were co-administered with Ago-2 to increase the cellular uptake of miR-18a^9 (Ferreira R, Santos T, Amar A, et al. Argonaute-2 promotes miR-18a entry in human brain endothelial cells. J Am Heart Assoc. 2014; 3(3):e000968) (FIG. 9). Methods regarding cell treatments and transfections were included in Data.\n(§2) Small interfering RNA transfection was performed as previously described^5. Briefly, ECs were transfected with small interfering RNA (siRNA) against ID1 or PAI-1 (Thermo Fisher Scientific), or small interfering control (Santa Cruz Biotechnology) constructs using Lipofectamine RNAiMax (Thermo Fisher Scientific) per the manufacturer's instructions. Knockdown of ID1 or PAI-1 was confirmed by quantitative real-time polymerase chain reaction as described^6 (FIG. 19). The sequences of the forward and reverse primers for ID1 and PAI-1 were included in Table 2.\n(§3) Plasmid constructs pcDNA3-ALK2^WT (Addgene #80870) and pcDNA3-ALK2^Q207D (Addgene #80871) were a gift from Aristidis Moustakas^7. (Meyer B, Schaller C, Frenkel C, Ebeling B, Schramm J. Distributions of local oxygen saturation and its response to changes of mean arterial blood pressure in the cerebral cortex adjacent to arteriovenous malformations. Stroke. 1999; 30(12):2623-2630) 10^4 AVM-BEC were seeded 24 h before transfection. The plasmid vector containing the 3′ untranslated region (3′UTR) of human BMP4, pRP [Exp]-Puro-CMV>Luciferase:{hBMP4_3′UTR}, was constructed and packaged by VectorBuilder. The vector ID is VB200205-1078zdv, which can be used to retrieve detailed information about the vector on vectorbuilder.com. Transient transfections were performed with Lipofectamine RNAiMax (Thermo Fisher Scientific) according to the manufacturer's instructions. After 4 h, medium was replaced by fresh medium containing microRNA.\n(§4) MiR-18a (hsa-miR-18a-5p, 40 nM, Dharmacon) or a scramble microRNA (40 nM, Dharmacon) in nuclease-free water was added with argonaute 2 (Ago-2, 0.4 nM, Abcam) as the microRNA carrier and stabilizer^9. (Ferreira R, Santos T, Amar A, et al. Argonaute-2 promotes miR-18a entry in human brain endothelial cells. J Am Heart Assoc. 2014; 3(3):e000968). No transfection reagent was used with miR-18a or scramble microRNA treatments. Recombinant human TSP-1 (R&D Systems) stock solution was prepared in PBS and further diluted in culture medium to be used at a final concentration of 1000 ng/mL. Cells were treated during 24 h for mRNA and 48 h for protein expression studies. NEO100 (NeOnc Technologies) stock was prepared in DMSO and used immediately or stored at −20° C. […]"}, "[3]": {"test_system": "AVM-BEC", "assay": "ELISA of AVM-BEC supernatants", "assay_type": "cell-based, human", "text": "as §1, §2, §3, §4"}},
  "data": [
    {"substance": "TSP-1: Recombinant human TSP-1 (R&D Systems), used at 1000 ng/mL", "values": [
      {"measurement": "migration rate of AVM-BEC", "setting": "[1]", "value": "decreases their migration rate"},
      {"measurement": "levels of secreted PAI-1", "setting": "[2]", "value": "without affecting control BEC"},
      {"measurement": "levels of secreted VEGF", "setting": "[2]", "value": "without affecting control BEC"},
      {"measurement": "levels of secreted PAI-1", "setting": "[3]; AVM-BEC supernatants, normoxia, vs scramble microRNA", "value": "decreased"},
      {"measurement": "levels of secreted VEGF", "setting": "[3]; AVM-BEC supernatants, normoxia, decrease only reached significance with miR-18a", "value": "decreased"},
      {"measurement": "PAI-1 secretion", "setting": "[3]; AVM-BEC, hypoxia 3% oxygen", "value": "neither treatment with TSP-1 (P=0.3917), nor ID1 knock-down (P=0.1701) were able to significantly decrease the levels of PAI-1"}
    ]}
  ]
}
